Data: US20250333394A1, “Tiparp Inhibitor Compounds” (AbbVie Inc., priority 2024, published 2025)
Like-named read-outs stand apart in the source and are kept apart here.

Columns and labels:
TIPARP GST-(TEV) = TIPARP GST-(TEV) (Homo sapiens (Human), UniProt Q7Z3E1); experiment: TR-FRET binding assay, TIPARP; details: for IC50: TR-FRET, Probe 1, 2 hours incubation; for PARP1/TIPARP IC50 Ratio: ratio of PARP1 GST IC50 to TIPARP GST-(TEV) IC50
In short: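 N-terminal GST-TEV-tagged human TIPARP with protein/probe mix in 50 mM Tris-HCl pH 8.0, 5 mM MgCl2, 5 µM ZnCl2, 1 mM DTT, 0.15% BSA, 0.01% Triton X-100, plus 1 nM Tb-anti-GST antibody. Compounds at 30 µM to 0.5 nM final, 3-fold steps. TR-FRET ratio read after 2 h at ambient temperature.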

PARP1 GST = PARP1 GST (Homo sapiens (Human), UniProt P09874); experiment: TR-FRET binding assay, PARP1; details: Probe 2, 2 hours incubation
In short: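 Serially diluted compounds, final 30 μM down to 0.5 nM, incubated 2 h at ambient temperature with GST-tagged protein/probe mix plus 1 nM Tb-anti-GST antibody. Buffer: 50 mM Tris-HCl pH 8.0, 5 mM MgCl2, 5 μM ZnCl2, 1 mM DTT, 0.15% BSA, 0.01% Triton X-100. Binding read as TR-FRET ratio.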

NCI-H1373 cells = experiment: NCI-H1373 CellTiter-Glo cell assay for TIPARP inhibition; assay type: cell-based, human; details: 6 days, 100 nM 10-Cl-BBQ in medium, read-out: NCI-H1373 CTG EC50
In short: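 NCI-H1373 cells (1000/well) grown in RPMI 1640 with 10% FBS and 100 nM 10-Cl-BBQ, exposed to compounds from 30 μM to 0.5 nM final in 3-fold steps for 6 days at 37° C. Cell number read on day 7 by CellTiter-Glo luminescence.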

DLD-1 parent cells = experiment: CellTiter-Glo DLD-1 parent cell assay; assay type: cell-based; details: 6 days, read-out: DLD-1 CTG EC50
In short: (§1)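 DLD-1 parent (500 cells/well) and DLD-1 BRCA2 (−/−) (1200 cells/well) cells in RPMI 1640 with 10% FBS exposed to compounds at 30 μM to 0.5 nM (3-fold dilutions) for 6 days at 37° C. Viability read by CellTiter-Glo luminescence on day 7.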

DLD-1 BRCA2 (−/−) cells = experiment: CellTiter-Glo DLD-1 BRCA2 (−/−) cell assay for PARP1/2 inhibition; assay type: cell-based; details: 6 days, read-out: DLD-1 BRCA2 (−/−) CTG EC50
In short: as §1

Sequence of TIPARP GST-(TEV) (Q7Z3E1 441-657): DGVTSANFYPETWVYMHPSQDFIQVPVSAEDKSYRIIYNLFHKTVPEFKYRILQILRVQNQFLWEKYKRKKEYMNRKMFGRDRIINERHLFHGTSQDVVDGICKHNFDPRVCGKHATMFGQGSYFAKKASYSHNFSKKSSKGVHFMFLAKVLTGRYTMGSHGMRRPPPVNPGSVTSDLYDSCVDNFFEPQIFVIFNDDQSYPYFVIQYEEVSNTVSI
Sequence of PARP1 GST (P09874 whole entry): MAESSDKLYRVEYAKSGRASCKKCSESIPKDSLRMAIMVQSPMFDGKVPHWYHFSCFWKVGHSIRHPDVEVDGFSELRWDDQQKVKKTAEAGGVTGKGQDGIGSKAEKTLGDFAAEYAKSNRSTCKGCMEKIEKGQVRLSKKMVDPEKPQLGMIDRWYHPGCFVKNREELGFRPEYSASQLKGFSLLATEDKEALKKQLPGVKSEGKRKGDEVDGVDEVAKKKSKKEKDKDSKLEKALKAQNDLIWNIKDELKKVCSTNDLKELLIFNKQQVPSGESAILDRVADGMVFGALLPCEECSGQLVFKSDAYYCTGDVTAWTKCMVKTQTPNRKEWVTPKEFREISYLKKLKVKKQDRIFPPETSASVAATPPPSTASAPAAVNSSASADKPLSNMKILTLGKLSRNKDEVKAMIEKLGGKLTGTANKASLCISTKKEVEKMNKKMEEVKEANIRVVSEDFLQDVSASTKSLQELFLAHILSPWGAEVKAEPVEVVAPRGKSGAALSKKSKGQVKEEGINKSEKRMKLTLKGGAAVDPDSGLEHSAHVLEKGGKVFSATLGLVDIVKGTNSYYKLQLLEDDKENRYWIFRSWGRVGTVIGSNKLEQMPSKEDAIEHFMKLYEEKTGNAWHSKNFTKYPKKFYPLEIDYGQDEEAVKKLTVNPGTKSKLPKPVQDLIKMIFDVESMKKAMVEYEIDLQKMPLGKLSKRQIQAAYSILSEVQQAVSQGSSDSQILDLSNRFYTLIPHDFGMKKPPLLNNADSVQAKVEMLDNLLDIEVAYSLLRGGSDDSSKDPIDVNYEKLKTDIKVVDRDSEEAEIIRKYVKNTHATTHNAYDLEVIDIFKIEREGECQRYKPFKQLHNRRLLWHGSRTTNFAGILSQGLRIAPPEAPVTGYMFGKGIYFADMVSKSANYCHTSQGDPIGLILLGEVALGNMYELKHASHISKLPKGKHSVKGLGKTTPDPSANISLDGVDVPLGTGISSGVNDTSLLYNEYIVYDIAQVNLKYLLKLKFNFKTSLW

With C[C@@H]1CN(C(=O)[C@H]2C[C@@H](Cc3c[nH]c(=O)c(C(F)(F)F)c3)C2)C[C@H](C)N1c1ncc(C(C)(C)O)cn1 [Example 22, 5-{[(1s,3s)-3-{(3R,5S)-4-[5-(2-hydroxypropan-2-yl)pyrimidin-2-yl]-3,5-dimethylpiperazine-1-carbonyl}cyclobutyl]methyl}-3-(trifluoromethyl)pyridin-2(1H)-one] the IC50 (TIPARP GST-(TEV)) was 0.0028 µM, the “PARP1/TIPARP IC50 Ratio” value (TIPARP GST-(TEV)) was 975 and the IC50 (PARP1 GST) was 2.73 µM. For the same compound, the EC50 (NCI-H1373 cells; Homo sapiens, NCI-H1373, 144 h) was 0.027 µM, the EC50 (DLD-1 parent cells; Homo sapiens, 144 h) was > 30 µM and the EC50 (DLD-1 BRCA2 (−/−) cells; Homo sapiens, 144 h) was 9.19 µM.

In the case of C[C@@H]1CN(C(=O)[C@H]2C[C@H](c3c[nH]c(=O)c(C(F)(F)F)c3)C2)C[C@H](C)N1c1ncc(C(F)(F)F)cn1 [Example 24, 5-[(1r,3r)-3-{(3R,5S)-3,5-dimethyl-4-[5-(trifluoromethyl)pyrimidin-2-yl]piperazine-1-carbonyl}cyclobutyl]-3-(trifluoromethyl)pyridin-2(1H)-one], the IC50 (TIPARP GST-(TEV)) is reported as 1.87 µM, the “PARP1/TIPARP IC50 Ratio” value (TIPARP GST-(TEV)) is reported as 1.65 and the IC50 (PARP1 GST) is reported as 3.08 µM. The EC50 (NCI-H1373 cells) was 6.49 µM, the EC50 (DLD-1 parent cells) was > 30 µM and the EC50 (DLD-1 BRCA2 (−/−) cells) was 23.4 µM.

In the case of C[C@@H]1CN(C(=O)[C@H]2C[C@@H](c3c[nH]c(=O)c(C(F)(F)F)c3)C2)CCN1c1ncc(C(F)(F)F)cn1 [Example 3, 5-[(1S,3s)-3-{(3R)-3-methyl-4-[5-(trifluoromethyl)pyrimidin-2-yl]piperazine-1-carbonyl}cyclobutyl]-3-(trifluoromethyl)pyridin-2(1H)-one], the IC50 (TIPARP GST-(TEV)) is reported as 0.00474 µM, the “PARP1/TIPARP IC50 Ratio” value (TIPARP GST-(TEV)) is reported as 106 and the IC50 (PARP1 GST) is reported as 0.504 µM. The EC50 (NCI-H1373 cells; Homo sapiens, NCI-H1373, 144 h) was 0.00965 µM, the EC50 (DLD-1 parent cells; Homo sapiens, 144 h) was > 30 µM and the EC50 (DLD-1 BRCA2 (−/−) cells; Homo sapiens, 144 h) was 5.03 µM.

For O=c1[nH]cc([C@H]2C[C@H](C(=O)N3CCN(c4ncc(C(F)(F)F)cn4)CC3)C2)cc1C(F)(F)F [Example 26, 3-(trifluoromethyl)-5-[(1r,3r)-3-{4-[5-(trifluoromethyl)pyrimidin-2-yl]piperazine-1-carbonyl}cyclobutyl]pyridin-2(1H)-one], the IC50 (TIPARP GST-(TEV)) was 1.62 µM, the “PARP1/TIPARP IC50 Ratio” value (TIPARP GST-(TEV)) was 0.790 and the IC50 (PARP1 GST) was 1.28 µM. The EC50 (NCI-H1373 cells) was 9.1 µM, the EC50 (DLD-1 parent cells) was > 30 µM and the EC50 (DLD-1 BRCA2 (−/−) cells) was > 30 µM.

With C[C@@H]1CN(c2ncc(C(F)(F)F)cn2)CCN1C(=O)[C@H]1C[C@@H](Cc2c[nH]c(=O)c(C(F)(F)F)c2)C1 [Example 12, 5-{[(1S,3s)-3-{(2R)-2-methyl-4-[5-(trifluoromethyl)pyrimidin-2-yl]piperazine-1-carbonyl}cyclobutyl]methyl}-3-(trifluoromethyl)pyridin-2(1H)-one] the IC50 (TIPARP GST-(TEV)) was 0.00316 µM, the “PARP1/TIPARP IC50 Ratio” value (TIPARP GST-(TEV)) was 1160 and the IC50 (PARP1 GST) was 3.65 µM. For the same compound, the EC50 (NCI-H1373 cells; Homo sapiens, NCI-H1373, 144 h) was 0.0292 µM, the EC50 (DLD-1 parent cells; Homo sapiens, 144 h) was 11.1 µM and the EC50 (DLD-1 BRCA2 (−/−) cells; Homo sapiens, 144 h) was 5.48 µM.

In the case of C[C@@H]1CN(c2ncc(C(C)(C)O)cn2)CCN1C(=O)[C@H]1C[C@@H](c2c[nH]c(=O)c(C(F)(F)F)c2)C1 [Example 9, 5-[(1S,3s)-3-{(2R)-4-[5-(2-hydroxypropan-2-yl)pyrimidin-2-yl]-2-methylpiperazine-1-carbonyl}cyclobutyl]-3-(trifluoromethyl)pyridin-2(1H)-one], the IC50 (TIPARP GST-(TEV)) is reported as 0.00432 µM, the “PARP1/TIPARP IC50 Ratio” value (TIPARP GST-(TEV)) is reported as 1010 and the IC50 (PARP1 GST) is reported as 4.36 µM. The EC50 (NCI-H1373 cells; Homo sapiens, NCI-H1373, 144 h) was 0.0677 µM, the EC50 (DLD-1 parent cells; Homo sapiens, 144 h) was > 30 µM and the EC50 (DLD-1 BRCA2 (−/−) cells; Homo sapiens, 144 h) was > 30 µM.
